This passage reports GI50 and TGI results from PubChem BioAssay (NCI).

Common to all, as to assay: DTP human tumour cell line panel, 48 h
The test system of assay [1] is T-47D breast.
In assay [2] the test system is SNB-75 CNS.
Assay [3] concerns SNB-19 CNS.
Assay [4] concerns ACHN renal.
Assay [5] relates to LOX IMVI melanoma.
Assay [6] has as its system HT29 colon.
The subject of assay [7] is MOLT-4 leukemia.
Assay [8] has as its system PC-3 prostate.
Assay [9] concerns NCI/ADR-RES ovarian.
The test system of assay [10] is UACC-257 melanoma.

SMILES strings stand for the structures.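 Tested at 5 concentrations; 48 h exposure; 96-well plates; endpoints linearly interpolated, else capped at highest concentration. GI50 = concentration required for 50% inhibition of growth. TGI: total growth inhibition.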

The GI50 is the concentration at which growth is held to half of that of the control. One may read the TGI as the concentration giving total growth inhibition. A higher TGI goes with lower sensitivity of the cells. Consider `CC1(C)N=C(N)N=C(N)N1c1cc(Cl)ccc1Cl`, for which the GI50 in assay [1] was greater than 100 µM; in [2], greater than 100 µM; in assay [3] it was greater than 100 µM; in [4], greater than 100 µM; in [5] it was greater than 100 µM; in assay [6] it was 62.5 µM. The GI50 in [7], in assay [8], in [9] and in assay [10] was greater than 100 µM throughout. Also, the TGI in [1], in assay [2], in assay [3], in assay [4], in assay [5] and in assay [6] was greater than 100 µM in each case. Also, the TGI in [7], in assay [8], in assay [9] and in [10] was greater than 100 µM each time.
For the molecule `CC1=Cc2cc3[n-]c(cc4nc(cc5[n-]c(cc1n2)cc5C)C(C)=C4CCC(=O)O)c(CCC(=O)O)c3C.[Pd+2]`, the GI50 was greater than 100 µM in [1]; 6.8 µM in [2]; 9.52 µM in [3]; 6.31 µM in assay [4]; 15.7 µM in [5]; 14.8 µM in [6]. In addition, the figures for the GI50 in [7], in assay [8] and in assay [10] were 10.1 µM, greater than 100 µM and 10.8 µM, respectively. In addition, the TGI in [1] is greater than 100 µM; in [2], 29.9 µM; in assay [3], 34.1 µM; in [4], 16.6 µM; in assay [5], 39.6 µM; in assay [6], 36.3 µM. The TGI is 27.5 µM in assay [7], greater than 100 µM in assay [8] and 29.3 µM in assay [10].
As for `O=C(Nc1ccc(Cl)cc1)c1cc2ccccc2cc1O`, the GI50 is 1.11 µM in [1]; 22.2 µM in assay [2]; 4.19 µM in [3]; 3.34 µM in assay [4]; 2.36 µM in [5]; 4.09 µM in [6]. Moreover, the GI50 in assay [7] was 4.19 µM; in assay [8], 2.99 µM; in [9], 2.81 µM; in assay [10], 3.25 µM. The TGI in assay [1] is 9.49 µM; in assay [2], greater than 100 µM; in [3], greater than 100 µM; in assay [4] it was greater than 100 µM; in [5], 18.2 µM; in [6], greater than 100 µM. Further, the TGI in assay [7] is greater than 100 µM; in assay [8] it was greater than 100 µM; in assay [9], greater than 100 µM; in assay [10] it was 7.91 µM.
For the molecule `COc1nc(C)cc2c(=O)n(-c3ccccc3)n(CCCN3CCN(c4ccc(Cl)cc4)CC3)c(=O)c12`, the GI50 in [1] is greater than 50 µM; in assay [2], 14.1 µM; in assay [3] it was 18.8 µM; in assay [4], greater than 50 µM; in assay [5] it was greater than 50 µM; in assay [6], greater than 50 µM. Moreover, the GI50 in [7] was greater than 50 µM; in assay [8], 15.3 µM; in assay [9], greater than 50 µM. Moreover, the TGI is greater than 50 µM in [1]; 47.6 µM in assay [2]; greater than 50 µM in [3]; greater than 50 µM in assay [4]; greater than 50 µM in assay [5]; greater than 50 µM in assay [6]. In addition, the TGI in assay [7], in assay [8] and in assay [9] was greater than 50 µM in each case.
As to `COC(=O)Nc1nc2ccccc2c(=O)[nH]1`, the TGI in [1], in assay [2], in assay [3], in assay [4], in assay [6] and in assay [7] was greater than 100 µM each time. Also, the TGI in assay [8], in assay [9] and in assay [10] was greater than 100 µM throughout.
Consider `S=C(Nc1ccc(Cl)cc1)Nc1ccc(-c2nc3ccccc3[nH]2)cc1`, for which the GI50 is 5.34 µM in assay [1]; 15.7 µM in assay [2]; 9.29 µM in assay [3]; 7.08 µM in assay [4]; 5.05 µM in assay [5]; 4.06 µM in [6]. In addition, the GI50 in assay [8] was 5.37 µM; in assay [9], 17.2 µM; in assay [10], 14.7 µM. Moreover, the TGI is 32.7 µM in [1]; greater than 55 µM in assay [2]; 36.5 µM in [3]; 31.2 µM in assay [4]; 11.7 µM in [5]; 14.9 µM in assay [6]. The figures for the TGI in [8], in assay [9] and in assay [10] were 35.8 µM, greater than 57.4 µM and greater than 52 µM, respectively.
With `C[C@H]1CCC/C=C/[C@@H]2C[C@H](O)C[C@H]2[C@H](O)[C@@H](S(=O)CCN(C)C)CC(=O)O1` (stereo partly drawn), the GI50 in [1] was 0.338 µM; in [2] it was 0.0332 µM; in assay [4], 0.428 µM; in assay [5] it was 0.0697 µM; in assay [6], 0.114 µM; in assay [7] it was 0.349 µM. The GI50 in [8] is 0.26 µM; in [9] it was 0.0629 µM; in assay [10], 0.0904 µM. Besides, the TGI in [3] was greater than 100 µM; in assay [5], greater than 100 µM; in assay [6], 0.293 µM; in assay [8] it was greater than 23.2 µM; in assay [9] it was greater than 100 µM; in [10], greater than 100 µM.
With `O=C(CCCn1ccnc1[N+](=O)[O-])NCCn1ccnc1`, the total growth inhibition concentration (TGI) in assay [1], in assay [2], in assay [3], in [4], in assay [6] and in assay [7] was greater than 100 µM throughout. The TGI in assay [8], in [9] and in assay [10] was greater than 100 µM throughout.
On to `COc1cc2c(/C=C3/C(=O)Nc4ccccc43)c(Cl)n(Cc3ccccc3[N+](=O)[O-])c2cc1C`, for which the GI50 in assay [1] is 4.11 µM; in assay [3], 11.1 µM; in [4] it was 4.95 µM; in assay [5], 9.17 µM; in assay [6], 1.93 µM; in assay [7] it was 5.51 µM. The GI50 in [8] was 5.08 µM; in assay [9] it was 4.71 µM; in assay [10], 17.7 µM. In addition, the TGI in assay [1] stood at 21.8 µM; in assay [3], 30.8 µM; in [4], 19.6 µM; in [5] it was 24 µM; in assay [6], 24.4 µM; in [7] it was 70.3 µM. Moreover, the values for the TGI in assay [8], in [9] and in [10] were 25.6 µM, 20.3 µM and 85.5 µM, respectively.
For the molecule `O=c1cc(-c2ccccc2)nc2n1CCN2Cc1ccccc1`, the GI50 was 65 µM in assay [1]; 60.5 µM in assay [2]; 80.9 µM in assay [3]; 25 µM in [4]; 29.8 µM in [5]; 58.1 µM in assay [6]. For the same molecule, the values for the GI50 in assay [7], in assay [8] and in assay [10] were 20.2 µM, 32.3 µM and 37.1 µM, respectively. In addition, the TGI was greater than 100 µM in [1]; greater than 100 µM in [2]; greater than 100 µM in [3]; 76.7 µM in [4]; greater than 100 µM in [5]; greater than 100 µM in assay [6]. For the same molecule, the TGI in [7] is 79.5 µM; in assay [8], greater than 100 µM; in [10] it was greater than 100 µM.
On to `O=C1OC(=O)C2C1C1(c3ccccc3)C(c3ccccc3)=C(c3ccccc3)C2(c2ccccc2)S1=O` (stereo not drawn), for which the GI50 in assay [1], in [2], in assay [3], in assay [4], in assay [5] and in assay [6] was greater than 100 µM each time. Besides, the GI50 in [8] is 87.7 µM; in assay [9], greater than 100 µM; in assay [10], greater than 100 µM. The TGI in assay [1], in assay [2], in assay [3], in [4], in [5] and in [6] was greater than 100 µM throughout. Further, the TGI in assay [8], in assay [9] and in [10] was greater than 100 µM in each case.
Take `CN(C)c1ccc2c3c(c(=O)oc2c1)CCC3`: the TGI in assay [1], in [3], in assay [4], in [5], in assay [6] and in assay [7] was greater than 100 µM throughout. The TGI in [8], in assay [9] and in assay [10] was greater than 100 µM throughout.
For the molecule `CCSc1nc(N=Cc2cccs2)c2cn[nH]c2n1`, the GI50 in assay [1] was 23.6 µM; in assay [3], 45.2 µM; in assay [4], 16.2 µM; in assay [5], 7.89 µM; in assay [6] it was 16.7 µM; in assay [7], 35.8 µM. Further, the GI50 was 20.7 µM in [8], 15.7 µM in [9] and 61 µM in assay [10]. The TGI in assay [1] is 95 µM; in assay [3] it was greater than 100 µM; in [4], greater than 100 µM; in assay [5], greater than 100 µM; in assay [6], 80.9 µM; in assay [7] it was greater than 100 µM. The results for the TGI in [8], in [9] and in assay [10] were greater than 100 µM, 61.4 µM and greater than 100 µM, respectively.
With `C[C@]12CC[C@@H]3c4ccc(O)cc4CC[C@H]3[C@@H]1CC[C@@H]2NS(=O)(=O)Cc1ccc(Cl)cc1`, the GI50 was 2.85 µM in assay [1]; 2.08 µM in assay [2]; 3.66 µM in [3]; 2.94 µM in [4]; 3.34 µM in assay [6]; 2.62 µM in assay [7]. The GI50 in assay [8] was 2.64 µM; in assay [9], 2.69 µM; in [10] it was 2.59 µM. The TGI was 8.11 µM in assay [1]; 9.75 µM in [2]; 47.1 µM in assay [3]; 11.5 µM in [4]; 10.8 µM in [6]; 31.3 µM in assay [7]. For the same molecule, the TGI in [8] is 15 µM; in assay [9] it was 10.7 µM; in assay [10], 8.08 µM.
With `Nc1ccccc1C#C/C=C\C#Cc1ccc(Cl)cc1Cl`, the GI50 in assay [1] is 18.9 µM; in assay [4], 20.9 µM; in assay [5], 11 µM; in assay [6], 15.1 µM; in assay [7], 1.62 µM; in [8], 9.04 µM. Also, the GI50 in [9] is 4.42 µM; in assay [10], 18.3 µM. Besides, the TGI in assay [1] was 78.5 µM; in assay [4], 41.7 µM; in assay [5] it was 26.5 µM; in [6], greater than 100 µM; in assay [7] it was greater than 100 µM; in assay [8], 42.1 µM. Further, the TGI in assay [9] came out at 18.8 µM; in assay [10] it was 40.9 µM.
Regarding `S=C(N/N=C/c1ccccn1)Nc1ccccn1`, the GI50 in assay [1] is 1.93 µM; in [3], 2.16 µM; in [4], 1.56 µM; in assay [5] it was 0.705 µM; in assay [6], 3.1 µM; in [7] it was 0.467 µM. For the same molecule, the GI50 in assay [8] is 1.46 µM; in assay [9], 1.74 µM; in assay [10], 0.903 µM. Further, the TGI in assay [1] is 90.7 µM; in [3], greater than 100 µM; in assay [4], greater than 100 µM; in assay [5], 23.1 µM; in [6], greater than 100 µM; in [7] it was greater than 100 µM. The TGI in [8] is greater than 100 µM; in [9] it was greater than 100 µM; in assay [10], 5.85 µM.
As for `Cc1nc2cccc(NCc3ccc(C(=O)NO)cc3)c2c(=O)n1-c1ccccc1`, the GI50 in assay [2] was 1.97 µM; in assay [3], 1.92 µM; in assay [4], 1.62 µM; in [5] it was 1.82 µM; in [6], 2.81 µM; in assay [7], 2.28 µM. Further, the GI50 was 1.9 µM in assay [8], 1.53 µM in assay [9] and 2.11 µM in [10]. For the same molecule, the TGI in assay [2] is 5.46 µM; in assay [3], 4.56 µM; in assay [4], 3.33 µM; in [5] it was 3.35 µM; in [6] it was 11.6 µM; in assay [7], greater than 100 µM. Also, the TGI in [8] was 6.14 µM; in assay [9] it was 7.16 µM; in assay [10] it was 4.98 µM.
